Values quoted from earlier work in US8349888B2, “Phytoestrogenic isoflavone compositions, their preparation and use thereof for protection against and treatment of radiation injury” (priority 2000, dated 2013).

Legend:
[1] = radioprotective doses

SMILES: C[C@]12CC[C@@H]3c4ccc(O)cc4CC[C@H]3[C@@H]1CC[C@@H]2O [17-beta-estradiol]
- behavioral toxicity [1]: behaviorally toxic

SMILES: O=c1cc(-c2ccc(O)cc2)oc2c([C@@H]3O[C@H](CO)[C@@H](O)[C@H](O)[C@H]3O)c(O)c([C@@H]3O[C@H](CO)[C@@H](O)[C@H](O)[C@H]3O)c(O)c12 [vicenin]
- efficacy if given after radiation (mice): not effective at all

SMILES: O=c1cc(-c2ccc(O)c(O)c2)oc2c([C@@H]3O[C@H](CO)[C@@H](O)[C@H](O)[C@H]3O)c(O)cc(O)c12 [orientin]
- efficacy if given after radiation (mice): not effective at all
